The assay deals with phosphorylated peptides containing a minimal CDK consensus motif (SP or TP) in MCF7 cells. Put plainly: Phospho-proteomics (mass spectrometry) of CDK substrate phosphorylation after PF3600. Type of assay: cell-based, Homo sapiens. The procedure:
CDK2 substrate dynamics were globally assessed through phospho-proteomics.
Phospho-peptide enrichment was performed as previously described (Lapek et al., 2017b). Lyophilized phospho-peptides were then TMT-labeled and fractionated by reverse phase basic pH fractionation and fractions combined as previously described (Edwards and Haas, 2016). Fractions were lyophilized and stored at […] until MS analysis. For LC-MS2/MS3 analysis, samples were reconstituted in 10 μL of 5% acetonitrile in 5% formic acid and 8 μL of each fraction was injected on the Orbitrap Fusion Lumos for analysis.
Peptides were eluted on a 165-minute gradient of 7-32% solvent B (80% acetonitrile in 0.1% formic acid) at 300 nL/min on a PepMap RSLC C18 column (2 μm, 100 Å, 75 μm×50 cm) heated to 60° C. Spectra were acquired in Top Speed mode, with a 5 second cycle. MS1 data were collected in the Orbitrap at 60000 resolution across a range of 500-1500 m/z. An automatic gain control (AGC) target of 2×10^5 was used with a maximum injection time of 100 ms. MS2 data were acquired in the ion trap with a rapid scan rate, maximum injection time of 70 ms, and an AGC target of 2×10^4. The quadrupole was used for isolation, with an isolation window of 0.5 m/z. […]
Data were normalized in a multistep process as previously described (Lapek et al., 2017a). […] All phospho data was processed and analyzed at the peptide level.

Regarding `C[C@@]1(O)CCC[C@H]1n1c(=O)c(C(F)F)cc2cnc(NC3CCN(S(C)(=O)=O)CC3)nc21` [PF3600, 6-(difluoromethyl)-8-[(1R,2R)-2-hydroxy-2-methylcyclopentyl]-2-{[1-(methylsulfonyl)-piperidin-4-yl]amino}pyrido[2,3-d]pyrimidin-7(8H)-one], under “25 nM PF3600, 1 hr”, the “number of SP/TP peptides whose phosphorylation was significantly reduced (p<0.05)” value stood at 40 peptides. Further, the “fate of the reduced phosphopeptides at 24 hr” value (25 nM PF3600, 24 hr) is on record as “vast majority of these rebounded to control levels”.

The record behind these values is patent US20230158034A1, “CO-TREATMENT WITH CDK4/6 AND CDK2 INHIBITORS TO SUPPRESS TUMOR ADAPTATION TO CDK2 INHIBITORS” (Pfizer Inc., priority 2020, published 2023).
